molecular target: T1, MALT1 (Homo sapiens, UniProt Q9UDY8); test: MALT1 protease inhibition assay (AMC-labeled peptide, fluorescence 360/460); format: biochemical; conditions: substrate Ac-LRSR-AMC, 15 min preincubation, 90 min at 25° C.
T1 sequence (Q9UDY8 1-824): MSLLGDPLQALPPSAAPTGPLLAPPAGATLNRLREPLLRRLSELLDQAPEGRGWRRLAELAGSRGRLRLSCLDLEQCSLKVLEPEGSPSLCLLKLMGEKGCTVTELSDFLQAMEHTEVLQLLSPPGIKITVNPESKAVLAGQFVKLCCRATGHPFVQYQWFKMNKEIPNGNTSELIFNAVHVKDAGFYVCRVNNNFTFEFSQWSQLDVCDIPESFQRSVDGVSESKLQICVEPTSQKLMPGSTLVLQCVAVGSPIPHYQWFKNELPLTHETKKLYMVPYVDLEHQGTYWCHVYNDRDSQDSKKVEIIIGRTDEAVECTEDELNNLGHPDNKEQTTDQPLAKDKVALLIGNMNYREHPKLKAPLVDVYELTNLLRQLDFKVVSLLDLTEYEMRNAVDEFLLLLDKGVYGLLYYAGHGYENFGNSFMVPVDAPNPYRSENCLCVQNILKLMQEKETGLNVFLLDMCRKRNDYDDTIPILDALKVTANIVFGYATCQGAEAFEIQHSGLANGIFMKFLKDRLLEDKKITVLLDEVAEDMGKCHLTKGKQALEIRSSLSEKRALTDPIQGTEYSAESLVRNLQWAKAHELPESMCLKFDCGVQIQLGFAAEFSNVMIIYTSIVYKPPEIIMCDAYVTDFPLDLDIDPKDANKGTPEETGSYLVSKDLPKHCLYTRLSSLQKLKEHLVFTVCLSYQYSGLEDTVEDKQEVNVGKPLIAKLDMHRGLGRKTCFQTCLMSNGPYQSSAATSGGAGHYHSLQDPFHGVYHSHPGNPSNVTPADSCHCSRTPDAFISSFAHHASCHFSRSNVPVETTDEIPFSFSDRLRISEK
Description: Test compounds of the present invention (in 100% DMSO) were spotted into a 384-well dilution plate and serially diluted to the required concentrations with DMSO. Then, 0.2 μL of the test compounds were transferred into a new 384-well reaction plate by Echo following centrifugation. The MALT enzyme and its substrate, AMC-labeled peptide, were prepared in 1× protease buffer to yield 2× enzyme solution and 2× peptide solution. Subsequently, 10 μL of 2× enzyme solution was added into the 384-well reaction plate, incubating with the test compounds for 15 minutes at 25° C. After that, 10 μL of 2× peptide solution was added into the plate, continuing to incubate for 90 minutes at 25° C. The plate was then placed on an Envision multifunctional microplate reader to collect raw data, which would be converted into inhibition rate:
Inhibition rate %=(max−sample)/(max−min)*100%. • “max” values were measured using the reaction with enzyme but no compound treated, while “min” values were generated from control wells containing assay buffer without enzyme.
Curve fitting was done with Graphpad Prism software to determine the IC50 values. The specific experimental operations are as follows:
58.82 g Na Citrate·2H2O powder was added into 140 mL ddH2O and mixed in a 37° C. water bath. Once there were no visible particles, the remaining solutions were added successively with continuous stirring for 10 minutes. The final volume was adjusted to 200 mL. The buffer was stored at room temperature. DTT was added before use.
• 1) All test compounds were diluted from 10 mM stock solution into 1 mM in a 384 well dilution plate (labcyte, PP-0200); • 2) Ten various concentrations of the diluted compound solution above were obtained by serial dilution at an equal ratio of 1:3; • 3) 0.2 μL DMSO was transferred to two empty wells of the 384 reaction plate as blank controls without compound and enzyme respectively; • 4) 0.2 μL of the test compound at different concentrations was also transferred into the 384 reaction plate by Echo, with two duplicate wells for each concentration, then the plate was centrifuged at 1000 rpm for 1 min.
• 1) The MALT1 protease and AMC-labeled peptide was prepared in 1× protease buffer to obtain 2× enzyme solution and 2× peptide solution. 10 μL of 2× enzyme solution was added into the 384-well reaction plate. The plate was centrifuged at 1000 rpm for 1 min and incubated for 15 min at 25° C. • 2) 10 μL of 2× peptide solution was then transferred to the 384 reaction plate, and the plate was centrifuged at 1000 rpm for 1 min and incubate for 90 min at 25° C.

Compound | IC50
CS(=O)(=O)CCNC(=O)c1ncc(NC(=O)c2cc(F)c(-c3ccc(F)cc3N)cc2Cl)cc1Cl [Example A469, 5-(2′-amino-5-chloro-2,4′-difluoro-[1,1′-biphenyl]-4-carboxamido)-3-chloro-N-(2-(methylsulfonyl)ethyl) picolinamide] | 10 to 100 nM
Nc1cc(F)ccc1-c1cc(Cl)c(C(=O)Nc2cnc(-n3nccn3)c(Cl)c2)cc1C1=CCCCC1 [Example A418, 2-amino-5′-chloro-N-(5-chloro-6-(2H-1,2,3-triazol-2-yl)pyridin-3-yl)-4-fluoro-2″,3″,4″,5″-tetrahydro-[1,1′:2′,1″-terphenyl]-4′-carboxamide] | > 500 nM
C#Cc1cnccc1-c1cc(Cl)c(C(=O)Nc2cnc(C(=O)NCCC)c(Cl)c2)cc1F [Example A430, 3-chloro-5-(2-chloro-4-(3-ethynylpyridin-4-yl)-5-fluorobenzamido)-N-propylpicolinamide] | ≤ 10 nM
Cc1cc(F)cc(N)c1-c1cc(Cl)c(C(=O)Nc2cnc(C(=O)NCC#N)c(Cl)c2)cc1F [Example A442, 5-(2′-amino-5-chloro-2,4′-difluoro-6′-methyl-[1,1′-biphenyl]-4-carboxamido)-3-chloro-N-(cyanomethyl)picolinamide] | 10 to 100 nM
C#Cc1cnccc1-c1cc(Cl)c(C(=O)Nc2cnc(C(=O)NCC(=O)N(CC)CC)c(Cl)c2)cc1F [Example A435, 3-chloro-5-(2-chloro-4-(3-ethynylpyridin-4-yl)-5-fluorobenzamido)-N-(2-(diethylamino)-2-oxoethyl)picolinamide] | 10 to 100 nM
CC#Cc1cc(C(=O)Nc2cnc(-n3nccn3)c(Cl)c2)c(C)cc1-c1ccc(F)cc1N [Example A423] | 10 to 100 nM
C=Cc1cnccc1-c1cc(Cl)c(C(=O)Nc2cnc(-n3nccn3)c(C(F)(F)F)c2)cc1F [Example A346, N-(6-(2H-1,2,3-triazol-2-yl)-5-(trifluoromethyl)pyridin-3-yl)-2-chloro-5-fluoro-4-(3-vinylpyridin-4-y1)benzamide] | ≤ 10 nM
Nc1cc(F)ccc1-c1cc(Cl)c(C(=O)Nc2cnc(C(=O)NCC(F)(F)F)c(Cl)c2)cc1F [Example A443, 5-(2′-amino-5-chloro-2,4′-difluoro-[1,1′-biphenyl]-4-carboxamido)-3-chloro-N-(2,2,2-trifluoroethyl)picolinamide] | ≤ 10 nM
C#Cc1cnccc1-c1cc(Cl)c(C(=O)Nc2cnc(C(=O)NCCOC(F)(F)F)c(Cl)c2)cc1F [Example A431, 3-chloro-5-(2-chloro-4-(3-ethynylpyridin-4-yl)-5-fluorobenzamido)-N-(2-(trifluoromethoxy)ethyl) picolinamide] | 10 to 100 nM
O=C(Nc1cnc(-n2nccn2)c(Cl)c1)c1cc(F)c(-c2ccncc2C2CC2)cc1Cl [Example A445, 2-chloro-N-(5-chloro-6-(2H-1,2,3-triazol-2-yl)pyridin-3-yl)-4-(3-cyclopropylpyridin-4-yl)-5-fluorobenzamide] | 10 to 100 nM
N#CCNC(=O)c1ncc(NC(=O)c2cc(F)c(-c3ccc(F)cc3N)cc2Cl)cc1Cl [Example A441, 5-(2′-amino-5-chloro-2,4′-difluoro-[1,1′-biphenyl]-4-carboxamido)-3-chloro-N-(cyanomethyl)picolinamide] | 10 to 100 nM
CN(C)CCNC(=O)c1ncc(NC(=O)c2cc(F)c(-c3ccc(F)cc3N)cc2Cl)cc1Cl [Example A453, 5-(2′-amino-5-chloro-2,4′-difluoro-[1,1′-biphenyl]-4-carboxamido)-3-chloro-N-(2-(dimethylamino)ethyl) picolinamide] | 100 to 500 nM
Cc1cc(-c2ccc(F)cc2N)c(C2=CCCC2)cc1C(=O)Nc1cnc(-n2nccn2)c(Cl)c1 [Example A420, 2′-amino-N-(5-chloro-6-(2H-1,2,3-triazol-2-yl)pyridin-3-yl)-2-(cyclopent-1-en-1-yl)-4′-fluoro-5-methyl-[1,1′-biphenyl]-4-carboxamide] | > 500 nM
O=C(Nc1cnc(-n2nccn2)c(C(F)(F)F)c1)c1cc(F)c(-c2c(Br)cncc2[N+](=O)[O-])cc1Cl [Example A440, N-(6-(2H-1,2,3-triazol-2-yl)-5-(trifluoromethyl)pyridin-3-yl)-4-(3-bromo-5-nitropyridin-4-yl)-2-chloro-5-fluorobenzamide] | 10 to 100 nM
Nc1cc(F)ccc1-c1cc(Cl)c(C(=O)Nc2cnc(C(=O)NCc3nnco3)c(Cl)c2)cc1F [Example A452, N-((1,3,4-oxadiazol-2-yl)methyl)-5-(2′-amino-5-chloro-2,4′-difluoro-[1,1′-biphenyl]-4-carboxamido)-3-chloropicolinamide] | 100 to 500 nM
C#Cc1cnc(Cl)c(N)c1-c1cc(Cl)c(C(=O)Nc2cnc(-n3nccn3)c(C(F)(F)F)c2)cc1F [Example A553] | ≤ 10 nM
Nc1cc(F)ccc1-c1cc(Cl)c(C(=O)Nc2cnc(C(=O)NCC3CCC3)c(Cl)c2)cc1F [Example A454, 5-(2′-amino-5-chloro-2,4′-difluoro-[1,1′-biphenyl]-4-carboxamido)-3-chloro-N-(cyclobutylmethyl) picolinamide] | 100 to 500 nM

Results, then the molecule that gave them:

IC50 | Compound
≤ 10 nM | C#Cc1cc(C(=O)Nc2cnc(-n3nccn3)c(Cl)c2)c(C)cc1-c1ccc(F)cc1N [Example A409]
≤ 10 nM | C#Cc1c(F)nc(C)c(N)c1-c1cc(Cl)c(C(=O)Nc2cnc(-n3nccn3)c(C(F)(F)F)c2)cc1F [Example A556, N-(6-(2H-1,2,3-triazol-2-yl)-5-(trifluoromethyl)pyridin-3-yl)-4-(3-amino-5-ethynyl-6-fluoro-2-methylpyridin-4-yl)-2-chloro-5-fluorobenzamide]
≤ 10 nM | C#Cc1cc(F)cnc1-c1cc(Cl)c(C(=O)Nc2cnc(-n3nccn3)c(Cl)c2)cc1F [Example A335, 2-chloro-N-(5-chloro-6-(2H-1,2,3-triazol-2-yl)pyridin-3-y1)-4-(3-ethyny1-5-fluoropyridin-2-y1)-5-fluorobenzamide]
≤ 10 nM | C#Cc1cccc(Cl)c1-c1cc(Cl)c(C(=O)Nc2cnc(-n3nccn3)c(C(F)(F)F)c2)cc1F [Example A413]
≤ 10 nM | C=CC(=O)Nc1cnccc1-c1cc(Cl)c(C(=O)Nc2cnc(-n3nccn3)c(Cl)c2)cc1F [Example A342, 4-(3-acrylamidopyridin-4-y1)-2-chloro-N-(5-chloro-6-(2H-1,2,3-triazol-2-y1)pyridin-3-y1)-5-fluorobenzamide]
100 to 500 nM | Nc1cc(F)ccc1-c1cc(Cl)c(C(=O)Nc2cnc(C(=O)NCCOC(F)(F)F)c(Cl)c2)cc1F [Example A459, 5-(2′-amino-5-chloro-2,4′-difluoro-[1,1′-biphenyl]-4-carboxamido)-3-chloro-N-(2-(trifluoromethoxy)ethyl)picolinamide]
10 to 100 nM | Cn1ccc(CNC(=O)c2ncc(NC(=O)c3cc(F)c(-c4ccc(F)cc4N)cc3Cl)cc2Cl)n1 [Example A455, 5-(2′-amino-5-chloro-2,4′-difluoro-[1,1′-biphenyl]-4-carboxamido)-3-chloro-N-((1-methyl-1H-pyrazol-3-yl)methyl)picolinamide]
10 to 100 nM | Nc1cc(F)ccc1-c1cc(Cl)c(C(=O)Nc2cnc(C(=O)NCC3CCS(=O)(=O)CC3)c(Cl)c2)cc1F [Example A437, 5-(2′-amino-5-chloro-2,4′-difluoro-[1,1′-biphenyl]-4-carboxamido)-3-chloro-N-((1,1-dioxidotetrahydro-2H-thiopyran-4-yl)methyl)picolinamide]
